Measured values as given in patent US11279708B2, “Amidino- and amino-rocaglates as novel translation inhibitors and anticancer agents” (priority 2019, dated 2022).

Key:
NIH/3T3 cells = test: Sulforhodamine B (SRB) cytotoxicity assay; assay type: cell-based
Description: In cellula activity of rocaglates. All compounds in the rocaglate collection were assessed for cytotoxic activity towards NIH/3T3 cells as well as the rocaglate-resistant line, eIF4A^em1JP, which harbors an F163L mutation in eIF4A1. This mutation was originally identified following selection for RocA-resistant yeast mutants and F163 was subsequently shown to be critical for stacking with ring C of RocA (2) (FIG. 4). Although eIF4A2 is also a target of rocaglates, eIF4A1 F163L is sufficient to confer resistance to rocaglate-induced translation inhibition and cytotoxicity, likely due to eIF4A1 being the more abundant isoform in NIH/3T3 cells (250-fold higher). […] Lastly, although effective at inhibiting cap-dependent translation in vitro, WGD-57-591 (no activity @ 40 nM) and WGD-57-590 (12% growth inhibition @ 40 nM) performed poorly in this assay.
Sulforhodamine B (SRB) assay. NIH/3T3 cells were seeded at a density of 1000 cells/well in a 96 well format and incubated in presence of each 40 nM compound. After 4 days of culture, cells were washed with PBS, fixed with 50% trichloroacetic (TCA) acid for 1 hour, and then stained with 0.5% sulforhodamine B in 1% acetic acid for 15 min. Plates were then washed 5 times with 1% acetic acid, dried, and the stained wells were resuspended with 10 mM Tris (pH 9) prior to measuring the absorbance at 510 nm using (Spectramax M5, Molecular Devices)
FIGS. 26A-26B. In cellula activity of rocaglates. 26A. Cytotoxicity of rocaglates towards NIH/3T3 (grey circle) and the NIH/3T3 rocaglate-resistant line, eIF4A^em1JP(redtriangle). Cells were exposed to 40 nM compound for 4 days and viability was measured using the SRB assay. n=3±SD. 26B. Rocaglates show different sequence preferences for inhibiting cap-dependent translation in cellula. HEK 293 cells were transfected with 0.5 μg of in vitro synthesized capped (AG)10-FF/HCV/Ren or (UC)10-FF/HCV/Ren mRNA and 1h later exposed to the indicated concentrations of compounds for an additional 6 h, at which time extracts were prepared and luciferase activity measured. n=3 SD.

eIF4F = target: T1, eIF4F (Mus musculus, UniProt P60843); test: trans-inhibition and eIF4F rescue in Krebs-2 translation extracts; assay type: biochemical; conditions: for effect of added eIF4F on compound-induced inhibition (in words): 100 nM compound, eIF4F 10 nM; for effect of m7GpppG-(AG)10 competitor RNA on (UC)10-FF/HCV/Ren translation (in words): 25-fold molar excess competitor
T1 construct: endogenous in cells; host or cells: Krebs-2 cell-free translation extract
T1 sequence (P60843 2-406 limits assumed): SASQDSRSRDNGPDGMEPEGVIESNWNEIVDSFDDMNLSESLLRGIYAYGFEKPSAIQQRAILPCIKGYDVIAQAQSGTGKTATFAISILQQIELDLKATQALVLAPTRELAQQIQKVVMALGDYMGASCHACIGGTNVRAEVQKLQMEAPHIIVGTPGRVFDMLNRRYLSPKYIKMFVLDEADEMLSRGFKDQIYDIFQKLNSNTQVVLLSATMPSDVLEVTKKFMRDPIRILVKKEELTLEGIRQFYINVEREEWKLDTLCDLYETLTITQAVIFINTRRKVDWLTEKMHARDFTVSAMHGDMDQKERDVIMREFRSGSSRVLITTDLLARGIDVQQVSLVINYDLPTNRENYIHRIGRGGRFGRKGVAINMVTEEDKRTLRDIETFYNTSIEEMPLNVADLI
T1 sequence (P63073 2-217 partner limits assumed): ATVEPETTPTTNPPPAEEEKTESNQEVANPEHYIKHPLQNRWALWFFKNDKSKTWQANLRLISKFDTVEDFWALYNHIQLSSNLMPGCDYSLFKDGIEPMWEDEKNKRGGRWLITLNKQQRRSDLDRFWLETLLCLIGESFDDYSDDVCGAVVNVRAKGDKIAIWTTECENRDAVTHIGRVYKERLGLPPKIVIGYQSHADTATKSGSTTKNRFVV
T1 sequence (Q6NZJ6 whole entry partner): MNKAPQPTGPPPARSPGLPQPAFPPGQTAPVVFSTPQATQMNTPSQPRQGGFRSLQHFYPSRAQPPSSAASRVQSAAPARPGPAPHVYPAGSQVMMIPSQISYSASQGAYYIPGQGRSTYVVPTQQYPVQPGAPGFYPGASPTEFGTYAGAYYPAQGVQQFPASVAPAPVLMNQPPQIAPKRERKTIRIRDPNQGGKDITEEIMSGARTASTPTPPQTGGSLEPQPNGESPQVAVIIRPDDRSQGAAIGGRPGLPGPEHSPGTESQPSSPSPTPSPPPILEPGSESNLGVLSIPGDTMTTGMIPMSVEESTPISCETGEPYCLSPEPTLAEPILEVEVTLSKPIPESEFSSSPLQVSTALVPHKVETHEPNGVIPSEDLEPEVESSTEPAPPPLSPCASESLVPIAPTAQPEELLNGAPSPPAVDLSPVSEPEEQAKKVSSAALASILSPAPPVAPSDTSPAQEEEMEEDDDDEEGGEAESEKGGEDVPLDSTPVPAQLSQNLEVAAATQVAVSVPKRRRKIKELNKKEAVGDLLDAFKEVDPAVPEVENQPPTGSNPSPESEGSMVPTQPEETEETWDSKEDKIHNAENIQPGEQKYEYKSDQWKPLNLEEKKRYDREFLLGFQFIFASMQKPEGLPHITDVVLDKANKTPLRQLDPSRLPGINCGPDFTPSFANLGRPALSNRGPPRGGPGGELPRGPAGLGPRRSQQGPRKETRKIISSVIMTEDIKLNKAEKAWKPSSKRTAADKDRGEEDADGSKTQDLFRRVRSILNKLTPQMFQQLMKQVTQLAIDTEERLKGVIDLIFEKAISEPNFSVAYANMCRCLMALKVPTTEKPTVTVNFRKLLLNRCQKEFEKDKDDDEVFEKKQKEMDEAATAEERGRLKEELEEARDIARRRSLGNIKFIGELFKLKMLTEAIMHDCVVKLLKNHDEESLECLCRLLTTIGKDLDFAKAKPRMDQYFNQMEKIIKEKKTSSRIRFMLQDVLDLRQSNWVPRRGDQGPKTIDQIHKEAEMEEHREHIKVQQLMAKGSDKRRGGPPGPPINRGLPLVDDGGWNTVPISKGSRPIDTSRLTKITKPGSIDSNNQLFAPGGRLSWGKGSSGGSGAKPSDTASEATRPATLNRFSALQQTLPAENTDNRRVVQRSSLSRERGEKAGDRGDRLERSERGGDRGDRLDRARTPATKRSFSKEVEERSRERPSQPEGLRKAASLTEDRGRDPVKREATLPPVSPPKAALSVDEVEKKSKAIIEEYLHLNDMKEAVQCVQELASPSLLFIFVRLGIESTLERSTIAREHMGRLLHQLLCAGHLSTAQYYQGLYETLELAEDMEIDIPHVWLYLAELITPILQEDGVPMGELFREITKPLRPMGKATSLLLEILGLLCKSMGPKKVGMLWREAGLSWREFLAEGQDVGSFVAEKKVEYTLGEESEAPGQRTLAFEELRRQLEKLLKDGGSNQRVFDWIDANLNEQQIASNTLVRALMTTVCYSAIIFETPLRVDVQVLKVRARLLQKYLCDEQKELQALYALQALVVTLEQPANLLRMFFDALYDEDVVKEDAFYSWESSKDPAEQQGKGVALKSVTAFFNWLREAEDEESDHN
Excerpt: In addition to a primary effect on translation of the target mRNA to which eIF4F is clamped by the rocaglate, this retention is predicted to lead to a reduction in the limiting eIF4F pool available for ribosome recruitment and could exert a trans-inhibitory effect on mRNAs that are not directly-targeted by rocaglates (i.e., absence of polypurine regions in their 5′ leader regions). To test this, we programmed in vitro translation reactions with (UC)10-FF/HCV/Ren mRNA which we found to be unresponsive to CR-1-31-B (23) and RocA (2) (FIG. 22). These were then supplemented with a 25-fold molar excess m^7GpppG-(AG)10 (SEQ ID NO: 10) or ApppG-(AG)10 (SEQ ID NO: 11) competitor RNA (FIG. 30B). […] In contrast, addition of ApppG-(AG)10 (SEQ ID NO: 11) and CR-1-31-B (23) or RocA (2) had little impact on translation of (UC)10-FF/HCV/Ren mRNA, indicating this to be a cap-dependent phenomenon (FIG. 30C, blue dotted line). If rocaglates decrease the pool of active eIF4F complexes, we posit that the addition of eIF4F to translation extracts should rescue rocaglate-mediated inhibition.
FIGS. 30A-30B. Rocaglates exert effects on eIF4F activity. 30A. RPDs performed with m^7GpppG-capped RNA incubated in the presence of retic lysate and either vehicle or 500 nM rocaglate. 30B. Schematic diagram showing assay assessing trans-inhibition of rocaglates. 30C. The presence of m^7GpppG capped, but not ApppG capped, purine-rich RNAs sensitizes the rocaglate-unresponsive m^7GpppG(UC)10-FF/HCV/Ren reporter to inhibition. Translation reactions were performed in Krebs-2 extracts with 10 nM of m^7GpppG(UC)10-FF/HCV/Ren reporter and 250 nM of competitor RNA. Reactions were incubated at 30° C. for 60 min prior to luciferase measurement. n=3±SD. 30D. The addition of recombinant eIF4F rescues rocaglate mediated translation inhibition. The m^7GpppG(AG)10-FF/HCV/Ren reporter was added to Krebs-2 translation extracts in the presence eIF4F and 100 nM of the indicated compound. Reactions were incubated at 30° C. for 60 min prior to luciferase measurement. n≥3, ±SEM

SMILES	rank among the top 15 cytotoxic rocaglates (NIH/3T3 cells; 40 nM, 4 days)	IC50 (NIH/3T3 cells; 4 day exposure, read-out: IC50, cytotoxicity towards NIH/3T3 cells)	effect of added eIF4F on compound-induced inhibition (in words) (eIF4F)	effect of m7GpppG-(AG)10 competitor RNA on (UC)10-FF/HCV/Ren translation (in words) (eIF4F)
COC(=O)[C@@H]1[C@@H](c2ccccc2)[C@]2(c3ccc(OC)cc3)Oc3cc(OC)cc(OC)c3[C@@]23N=C(C)N[C@@]13O [9b]	10th			
CONC(=O)[C@H]1[C@@H](O)[C@@]2(O)c3c(OC)cc(OC)cc3O[C@@]2(c2ccc(OC)cc2)[C@@H]1c1ccccc1 [CR-1-31-B]		~8.5 nM	partially rescue	sensitized (UC)10-FF/HCV/Ren mRNA to inhibition
COC(=O)[C@H]1[C@@H](O)[C@@]2(O)c3c(OC)cc(O[C@@H]4O[C@@H]([C@H](O)CO)CO[C@H]4OC)cc3O[C@@]2(c2ccc(OC)cc2)[C@@H]1c1ccccc1 [silvestrol]			partially rescue	
COc1ccc([C@@]23Oc4cc(OC)cc(OC)c4[C@]2(O)[C@H](O)[C@H](C(=O)N(C)C)[C@H]3c2ccccc2)cc1 [RocA, rocaglamide A]				sensitized (UC)10-FF/HCV/Ren mRNA to inhibition
